Source: article PMC10029098 (Chembiochem : a European journal of chemical biology, 2022)
Values joined by “and” are separate entries in the source; they are usually repeats but may differ in a detail not shown here. Equal entries are not always repeated. Ends that are not written are not given here.

Key:
[1] = Far-UV CD spectroscopy, thermal denaturation; format: physicochemical; conditions: calculated at 293K from best-fitted melting curves of thermal denaturation recorded by CD; phosphate buffer 15 mM, pH 6.5; RC = random coil
[2] = Thermodynamic solubility measurement; format: physicochemical; conditions: potassium phosphate buffer, pH 7.4, aqueous buffer, thermodynamic from solid
PD1/PDL1 interaction = PD1/PDL1 interaction (Homo sapiens, UniProt Q15116); experiment: PD1 ImmunoBlocking ELISA; format: biochemical
Sequence of PD1/PDL1 interaction (Q15116 25-167 limits assumed): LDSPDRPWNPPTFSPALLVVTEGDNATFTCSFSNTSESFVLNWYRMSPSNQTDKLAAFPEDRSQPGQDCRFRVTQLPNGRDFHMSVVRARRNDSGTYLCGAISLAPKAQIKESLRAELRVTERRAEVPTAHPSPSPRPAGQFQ

PD1 = PD1 (Homo sapiens, UniProt Q15116); experiment: UV/Vis-colorimetric PDL1-competitive binding kinetics assay
Sequence of PD1 (Q15116 25-167 limits assumed): as above

Sequence: RWVWGGGGKKGGGGWVWE [2a]
- %-Fold, hairpin folded fraction (χF) [1]: 87 ± 1%
- solubility thermodynamic [2]: 5800 ± 200 µM

Sequence: RWCARRDYRFDMGFDYWGWE [1c]
- solubility thermodynamic [2]: 300 ± 100 µM
- EC50 (PD1/PDL1 interaction): 3.7 ± 1.02 µM

Sequence: RWVWRRDYRGDMGFDYWVWE [2b]
- %-Fold, hairpin folded fraction (χF) [1]: 81 ± 1%
- solubility thermodynamic [2]: 600 ± 100 µM

Sequence: RWVARRDYRFDMGFDYWVWE [1e]
- solubility thermodynamic [2]: 900 ± 100 µM
- EC50 (PD1/PDL1 interaction): < 0.6 µM and 0.29 µM
- Ki (PD1): 0.041 µM

Sequence: RWVARRDYRGDMGFDYWVWE [1d]
- solubility thermodynamic [2]: 3400 ± 100 µM

Sequence: RWVWRRDYRFDMGFDYWVWE [2c]
- %-Fold, hairpin folded fraction (χF) [1]: 54 ± 1%
